The text below walks through data of publication PMC8308639, “Synthesis and Human Carbonic Anhydrase I, II, IX, and XII Inhibition Studies of Sulphonamides Incorporating Mono-, Bi- and Tricyclic Imide Moieties” (Pharmaceuticals, 2021).

The Ki is a measure of affinity in units of concentration, obtained from inhibition or displacement. What is called melting point is the temperature, or range, at which the solid turns liquid.

A short description of one data set: Qualitative solubility. It counts as physicochemical.
A further data set concerns the target hCA XII (Homo sapiens, UniProt O43570). Nature of the data set: CA-catalysed CO2 hydration stopped-flow inhibition assay, hCA XII. The settings on record: for Ki: stopped-flow CO2 hydration, mean ± standard error, three assays; for Selectivity Ratio B = hCA II/XII: ratio of Ki hCA II / Ki hCA XII.
For the next data set, the target named is hCA IX (Homo sapiens, UniProt Q16790). Nature of the data set: CA-catalysed CO2 hydration stopped-flow inhibition assay, hCA IX. The settings on record: for Ki: stopped-flow CO2 hydration, mean ± standard error, three assays; for Selectivity Ratio A = hCA II/IX: ratio of Ki hCA II / Ki hCA IX.
A further data set deals with hCA I (Homo sapiens, UniProt P00915). The data set can be described thus: CA-catalysed CO2 hydration stopped-flow inhibition assay, hCA I.
A further data set deals with hCA II (Homo sapiens, UniProt P00918). Nature of the data set: CA-catalysed CO2 hydration stopped-flow inhibition assay, hCA II.
Setting [1] is: Ki (nM) hCA II, mean ± standard error, three assays.

Counter-ions that a name gives are not always drawn. Like-named read-outs stand apart in the source and are kept apart here.

Sequence of hCA XII (O43570 25-354): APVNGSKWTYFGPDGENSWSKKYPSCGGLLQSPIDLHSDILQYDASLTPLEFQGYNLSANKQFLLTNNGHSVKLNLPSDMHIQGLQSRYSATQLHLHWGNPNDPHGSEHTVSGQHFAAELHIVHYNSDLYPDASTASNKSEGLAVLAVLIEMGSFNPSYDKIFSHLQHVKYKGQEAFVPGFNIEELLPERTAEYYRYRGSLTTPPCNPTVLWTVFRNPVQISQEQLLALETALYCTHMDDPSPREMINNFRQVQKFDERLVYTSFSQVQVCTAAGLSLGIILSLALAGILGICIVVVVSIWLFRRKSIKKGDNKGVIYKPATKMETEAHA
Sequence of hCA I (P00915 whole entry): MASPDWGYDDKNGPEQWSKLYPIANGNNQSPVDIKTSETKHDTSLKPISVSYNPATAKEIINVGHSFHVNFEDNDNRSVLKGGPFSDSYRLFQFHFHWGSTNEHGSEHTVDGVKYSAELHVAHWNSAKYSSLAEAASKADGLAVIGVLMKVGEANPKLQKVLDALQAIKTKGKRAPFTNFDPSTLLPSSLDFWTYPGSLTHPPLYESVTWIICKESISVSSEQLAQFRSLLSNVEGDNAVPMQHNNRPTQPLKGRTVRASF

Consider `NS(=O)(=O)c1ccccc1N1C(=O)c2c(Cl)c(Cl)c(Cl)c(Cl)c2C1=O` [Compound 10, 2-(4,5,6,7-tetrachloro-1,3-dioxoisoindolin-2-yl) benzenesulphonamide], for which the melting point amounted to 313 °C. Further, the solubility in water result in “Qualitative solubility” is listed as “insoluble”. Besides, on hCA XII (Ki (nM) hCA XII), the affinity corresponds to a Ki of 309 ± 24 nM. On hCA IX (Ki (nM) hCA IX), this compound displayed a Ki of 559 ± 26 nM.
`NS(=O)(=O)c1ccc(N2C(=O)c3c(Cl)c(Cl)c(Cl)c(Cl)c3C2=O)c(Br)c1` [Compound 13, 3-bromo-4-(4,5,6,7-tetrachloro-1,3-dioxoisoindolin-2-yl) benzenesulphonamide] returned a melting point of 265 °C. For the same compound, the solubility in water result in “Qualitative solubility” is listed as “insoluble”. In addition, the Ki on hCA XII (Ki (nM) hCA XII) was determined as 99 ± 3.5 nM. The affinity at hCA IX (Ki (nM) hCA IX), expressed as Ki, was 40 ± 1.5 nM.
Compound `NS(=O)(=O)c1ccc(N2C(=O)c3ccc([N+](=O)[O-])cc3C2=O)c(F)c1` [Compound 5, 3-fluoro-4-(5-nitro-1,3-dioxoisoindolin-2-yl) benzenesulphonamide] yielded a melting point of 232 °C. Also, the solubility in water entry in the data set “Qualitative solubility” was “insoluble”. Further, on hCA XII (Ki (nM) hCA XII), the Ki is 75 ± 4 nM. Moreover, the “Selectivity Ratio B = hCA II/XII” value on hCA XII is 0.061. On hCA I, this compound gave a Ki of 400 ± 31 nM. The compound further displayed a Ki at hCA II (setting [1]) of 4.6 ± 0.3 nM. Moreover, affinity on hCA IX (Ki (nM) hCA IX) was put at a Ki of 4900 ± 300 nM.
Take `NS(=O)(=O)c1ccc(N2C(=O)c3cccc4c(S(=O)(=O)O)ccc(c34)C2=O)cc1` [Compound 1, 4-(4-sulfo-1,8-napthalic-1,3-dioxopyridine) potassium benzenesulphonamide]: the solubility in water result in “Qualitative solubility” was “fully soluble”. Further, the Ki came out at 49 ± 3.2 nM on hCA I (read-out: Ki (nM) hCA I, stopped-flow CO2 hydration, mean ± standard error, three assays); 13 ± 0.9 nM at hCA II (read-out: Ki (nM) hCA II, mean ± standard error, three assays); 7770 ± 145 nM at hCA IX (read-out: Ki (nM) hCA IX).
Turning to `NS(=O)(=O)c1ccc2sc(N3C(=O)c4c(Br)c(Br)c(Br)c(Br)c4C3=O)nc2c1` [Compound 4, 2-(4,5,6,7-Tetrabromo-1,3-dioxoisoindolin-2-yl) Benzo[d]Thiazole-5-Sulphonamide], in “Qualitative solubility”, the solubility in water entry is reported as “insoluble”. Further, the Ki is 87 ± 6 nM on hCA XII (Ki (nM) hCA XII), 463 ± 29 nM on hCA I, 44 ± 1.9 nM on hCA II (setting [1]) and 4030 ± 237 nM on hCA IX (Ki (nM) hCA IX). Moreover, the “Selectivity Ratio B = hCA II/XII” value at hCA XII is 0.506. The “Selectivity Ratio A = hCA II/IX” value on hCA IX is 0.011.
As to `NS(=O)(=O)c1ccc(N2C(=O)c3c(Cl)c(Cl)c(Cl)c(Cl)c3C2=O)c(Cl)c1` [Compound 12, 3-chloro-4-(4,5,6,7-tetrachloro-1,3-dioxoisoindolin-2-yl)benzenesulphonamide], the melting point turned out to be 303 °C. Moreover, the solubility in water result in the data set “Qualitative solubility” is “insoluble”. On hCA XII (Ki (nM) hCA XII), this compound had a Ki of 22 ± 1.7 nM. Further, the Ki at hCA IX (Ki (nM) hCA IX) is 49 ± 0.4 nM.
For `NS(=O)(=O)c1ccc(CCN2C(=O)c3c(Cl)c(Cl)c(Cl)c(Cl)c3C2=O)cc1` [Compound 8, 4-(2-(4,5,6,7-tetrachloro-1,3-dioxoisoindolin-2-yl)ethyl)benzenesulphonamide], the melting point turned out to be 286 °C. Moreover, the solubility in water entry in “Qualitative solubility” is on record as “insoluble”. The Ki on hCA XII (Ki (nM) hCA XII) was found to be 226 ± 13 nM.
`NS(=O)(=O)c1ccc(S(=O)(=O)Nc2cccc3c(Cl)c[nH]c23)cc1` [IND, Indisulam, reference compound]: the Ki at hCA XII (read-out: Ki (nM) hCA XII) was 3.4 ± 0.2 nM.
Consider `NS(=O)(=O)c1ccc(CCN2C(=O)C=CC2=O)cc1` [Compound 2, 4-(2-(2,5-dioxo-2H-pyrrol-1(5H)-yl)ethyl)benzenesulphonamide], for which the melting point came to 210 °C. Moreover, the solubility in water result in the data set “Qualitative solubility” is recorded as “insoluble”. For the same compound, the Ki at hCA XII (Ki (nM) hCA XII) worked out at 69 ± 4.5 nM. For the same compound, at hCA IX (Ki (nM) hCA IX), the Ki is 7420 ± 348 nM.
Take `NS(=O)(=O)c1ccc2sc(N3C(=O)c4c(Cl)c(Cl)c(Cl)c(Cl)c4C3=O)nc2c1` [Compound 3, 2-(4,5,6,7-tetrachloro-1,3-dioxoisoindolin-2-yl) benzo[d]thiazole-5-sulphonamide]: the melting point worked out at 302.2 °C. Besides, in the data set “Qualitative solubility”, the solubility in water entry was “fully soluble”. Also, the Ki on hCA XII (Ki (nM) hCA XII) stood at 80 ± 7 nM. The compound further came in with a Ki on hCA I of 258 ± 12 nM. On hCA IX (Ki (nM) hCA IX), this compound yielded a Ki of 933 ± 56 nM. The “Selectivity Ratio A = hCA II/IX” value at hCA IX turned out to be 0.795.
As to `NS(=O)(=O)c1ccc(N2C(=O)c3c(Cl)c(Cl)c(Cl)c(Cl)c3C2=O)c(F)c1` [Compound 11, 3-fluoro-4-(4,5,6,7-tetrachloro-1,3-dioxoisoindolin-2-yl) benzenesulphonamide], the melting point turned out to be 278 °C. Besides, the solubility in water entry in “Qualitative solubility” is recorded as “insoluble”. For the same compound, affinity at hCA XII (Ki (nM) hCA XII) was put at a Ki of 14 ± 1 nM. Besides, the Ki at hCA IX (Ki (nM) hCA IX) is 88 ± 7 nM.
Turning to `NS(=O)(=O)c1ccc(CN2C(=O)c3c(Cl)c(Cl)c(Cl)c(Cl)c3C2=O)cc1` [Compound 7, 4-((4,5,6,7-Tetrachloro-1,3-dioxoisoindolin-2-yl) Methyl) Benzenesulphonamide], the solubility in water entry in the data set “Qualitative solubility” is “insoluble”. On hCA IX (Ki (nM) hCA IX), this compound showed a Ki of 103 ± 5 nM.
Turning to `NS(=O)(=O)c1ccc(N2C(=O)c3c(Cl)c(Cl)c(Cl)c(Cl)c3C2=O)cc1` [Compound 6, 4-(4,5,6,7-tetrachloro-1,3-dioxoisoindolin-2-yl) benzenesulphonamide], the solubility in water entry in “Qualitative solubility” is on record as “insoluble”.
For the compound `NS(=O)(=O)c1ccc(N2C(=O)c3cccc4c(S(=O)(=O)O)ccc(c34)C2=O)cc1` (as salt: potassium) [Compound 1, 4-(4-sulfo-1,8-napthalic-1,3-dioxopyridine) potassium benzenesulphonamide], the melting point worked out at 277 °C.
In turn, `NS(=O)(=O)c1cccc(N2C(=O)c3c(Cl)c(Cl)c(Cl)c(Cl)c3C2=O)c1` [Compound 9, 3-(4,5,6,7-tetrachloro-1,3-dioxoisoindolin-2-yl) benzenesulphonamide] displayed a melting point of 308 °C. The solubility in water result in the data set “Qualitative solubility” is “insoluble”. Also, the affinity at hCA XII (Ki (nM) hCA XII), expressed as Ki, was 316 ± 28 nM. The compound further had a Ki at hCA IX (Ki (nM) hCA IX) of 498 ± 34 nM.
